# Experimental data taken from patent US8962808B2, “EGFR-related polypeptides and methods of use” (The Research Foundation for the State University of New York, priority 2010, dated 2015).
# Experiments:
# [1] = test system: cancer cells with EGFRvIII expression; conditions: literature reports; cited from earlier work
# [2] = test system: non-small cell lung cancer; conditions: NSCLC patients with activating mutations in the EGFR tyrosine kinase domain; cited from earlier work
# [3] = test system: NIH 3T3 cells; experiment: Western blot of phosphorylation of GFP-tagged EGFRΔ[…] versus WT-EGFR in NIH 3T3 cells; assay type: cell-based; conditions: no ligand, FIG. 7A
# Text: Dafna Bar-Sagi). Then, we subcloned the novel extracellular deletion mutant Δ[…] into this vector. […]
# [4] = test system: SY5Y; experiment: IP-western of phosphorylation status of GFP-tagged EGFR mutants in SY5Y cells; assay type: cell-based, human; conditions: anti-GFP IP, higher than EGFRvIII, FIG. 7D
# Text: Then, we prepared RNA and protein lysates from the transfected cells. We confirmed the identity of the lysates by RT-PCR (FIG. 7C). Next, we evaluated the phosphorylation status of both mutants. Because SY5Y cells expressed endogenous WT-EGFR (21, 22), we used anti-GFP antibody to immunoprecipitate the mutant EGFR polypeptides.
molecule,measurement,setting,value
C#Cc1cccc(Nc2ncnc3cc(OCCOC)c(OCCOC)cc23)c1 [erlotinib],sensitivity of cancer cells with EGFRvIII expression,[1],not as sensitive
COc1cc2ncnc(Nc3ccc(F)c(Cl)c3)c2cc1OCCCN1CCOCC1 [gefitinib],patient response,[2],dramatic response
"EGFRΔ768: truncated EGFR, in-frame deletion from nucleotide 102 of exon 2 to nucleotide 869 of exon 7",phosphorylation in the absence of ligand (versus WT-EGFR),[3],constitutively active
same,"autophosphorylation level, difference versus EGFRvIII",[4],~40%
